Experiments:
Artemis:DNA-PKcs complex = molecular target: T1, Artemis:DNA-PKcs complex (Homo sapiens, UniProt P78527); experiment: In vitro nuclease assay: effect of a DNA-PKcs inhibitor and of ATP analogs on hairpin opening; assay type: biochemical; conditions: for effect of DNA-PKcs (conferring hairpin opening activity on Artemis) when analog is used instead of ATP: 1 mM ATP analog, DFL16.1 hairpin, FIG. 5B lanes 5, 6
T1 construct: Native DNA-PKcs was purified as described (Chan et al., 1996) except that HeLa cells were used as the source; made in house; host or cells: Artemis-myc-His: transfected 293T cells (Ni-NTA, then anti-myc immunobeads); DNA-PKcs: endogenous protein purified from HeLa cells
Procedure: (§1) Nuclease assays without RAGs were carried out in a total volume of 10 μL with a buffer composition of 25 mM Tris, pH 8.0, 10-50 mM NaCl or KCl, 10 mM MgCl2, 1 mM DTT, and 50 ng/μL of BSA unless otherwise specified. To the buffer mixture, Artemis was added to 2.75 pmol, and DNA-PKcs and Ku were added to 1.25 pmol each. 0.25 mM of ATP (or ADP, ATP-y-S, AMP-PNP) and […] of 35 bp DNA were included where DNA-PKcs was used. Reactions were incubated at 37° C. for 30 minutes. In reactions including DNA-PKcs inhibitors, reaction mixtures without the substrate were incubated on ice for 15 minutes before the addition of the substrate and the subsequent incubation at 37° C. In FIG. 7, pre-phosphorylation of Artemis-myc-His immunobeads was carried out under DNA-PK kinase assay conditions. After washing the treated immunobeads with buffer F for three times and the nuclease assay buffer for two times, the beads were used for the nuclease reactions. In the hairpin opening of RAG-generated hairpins (FIG. 8), the reactions contained 25 mM K-HEPES, pH 7.4, 50 mM KCl, 10 mM MgCl2, 1 mM DTT, 0.25 pmol of labeled 12-RSS double-stranded oligonucleotides (KY28/KY29) and an equal amount of unlabeled 23-RSS double-stranded oligonucleotides (KY36/KY37), 1 pmol of RAGs (assuming that the RAG complex consists of two RAG-1 and two RAG-2 subunits), 2 pmol of HMG1, 2.75 pmol of Artemis-myc-His, and 1.25 pmol of DNA-PKcs (with ATP and 35 bp DNA as described above). For the sequential reactions, substrates were incubated with RAG complex alone first at 37° C. for 60 minutes, extracted with or without phenol/chloroform, then Artemis-myc-His and DNA-PKcs were added, followed by another 30-minute incubation at 37° C. Reactions with the RAG complex, Artemis, and DNA-PKcs added simultaneously were incubated for 90 minutes at the same temperature. After incubation, reactions were stopped by adding an equal volume of formamide gel loading buffer and beating at 100° C. for 5 minutes. DNA was resolved on 12% denaturing polyacrylamide gels. […] Data was analyzed by ImageQuant software (v5.0). […]

20 bp hairpin (DFL16.1) = experiment: In vitro nuclease assay: hairpin opening by Artemis proteins; assay type: biochemical
Procedure: as §1

dsDNA = conditions: read-out: equilibrium binding affinity for dsDNA; cited from earlier work

T1 sequence (P78527 whole entry): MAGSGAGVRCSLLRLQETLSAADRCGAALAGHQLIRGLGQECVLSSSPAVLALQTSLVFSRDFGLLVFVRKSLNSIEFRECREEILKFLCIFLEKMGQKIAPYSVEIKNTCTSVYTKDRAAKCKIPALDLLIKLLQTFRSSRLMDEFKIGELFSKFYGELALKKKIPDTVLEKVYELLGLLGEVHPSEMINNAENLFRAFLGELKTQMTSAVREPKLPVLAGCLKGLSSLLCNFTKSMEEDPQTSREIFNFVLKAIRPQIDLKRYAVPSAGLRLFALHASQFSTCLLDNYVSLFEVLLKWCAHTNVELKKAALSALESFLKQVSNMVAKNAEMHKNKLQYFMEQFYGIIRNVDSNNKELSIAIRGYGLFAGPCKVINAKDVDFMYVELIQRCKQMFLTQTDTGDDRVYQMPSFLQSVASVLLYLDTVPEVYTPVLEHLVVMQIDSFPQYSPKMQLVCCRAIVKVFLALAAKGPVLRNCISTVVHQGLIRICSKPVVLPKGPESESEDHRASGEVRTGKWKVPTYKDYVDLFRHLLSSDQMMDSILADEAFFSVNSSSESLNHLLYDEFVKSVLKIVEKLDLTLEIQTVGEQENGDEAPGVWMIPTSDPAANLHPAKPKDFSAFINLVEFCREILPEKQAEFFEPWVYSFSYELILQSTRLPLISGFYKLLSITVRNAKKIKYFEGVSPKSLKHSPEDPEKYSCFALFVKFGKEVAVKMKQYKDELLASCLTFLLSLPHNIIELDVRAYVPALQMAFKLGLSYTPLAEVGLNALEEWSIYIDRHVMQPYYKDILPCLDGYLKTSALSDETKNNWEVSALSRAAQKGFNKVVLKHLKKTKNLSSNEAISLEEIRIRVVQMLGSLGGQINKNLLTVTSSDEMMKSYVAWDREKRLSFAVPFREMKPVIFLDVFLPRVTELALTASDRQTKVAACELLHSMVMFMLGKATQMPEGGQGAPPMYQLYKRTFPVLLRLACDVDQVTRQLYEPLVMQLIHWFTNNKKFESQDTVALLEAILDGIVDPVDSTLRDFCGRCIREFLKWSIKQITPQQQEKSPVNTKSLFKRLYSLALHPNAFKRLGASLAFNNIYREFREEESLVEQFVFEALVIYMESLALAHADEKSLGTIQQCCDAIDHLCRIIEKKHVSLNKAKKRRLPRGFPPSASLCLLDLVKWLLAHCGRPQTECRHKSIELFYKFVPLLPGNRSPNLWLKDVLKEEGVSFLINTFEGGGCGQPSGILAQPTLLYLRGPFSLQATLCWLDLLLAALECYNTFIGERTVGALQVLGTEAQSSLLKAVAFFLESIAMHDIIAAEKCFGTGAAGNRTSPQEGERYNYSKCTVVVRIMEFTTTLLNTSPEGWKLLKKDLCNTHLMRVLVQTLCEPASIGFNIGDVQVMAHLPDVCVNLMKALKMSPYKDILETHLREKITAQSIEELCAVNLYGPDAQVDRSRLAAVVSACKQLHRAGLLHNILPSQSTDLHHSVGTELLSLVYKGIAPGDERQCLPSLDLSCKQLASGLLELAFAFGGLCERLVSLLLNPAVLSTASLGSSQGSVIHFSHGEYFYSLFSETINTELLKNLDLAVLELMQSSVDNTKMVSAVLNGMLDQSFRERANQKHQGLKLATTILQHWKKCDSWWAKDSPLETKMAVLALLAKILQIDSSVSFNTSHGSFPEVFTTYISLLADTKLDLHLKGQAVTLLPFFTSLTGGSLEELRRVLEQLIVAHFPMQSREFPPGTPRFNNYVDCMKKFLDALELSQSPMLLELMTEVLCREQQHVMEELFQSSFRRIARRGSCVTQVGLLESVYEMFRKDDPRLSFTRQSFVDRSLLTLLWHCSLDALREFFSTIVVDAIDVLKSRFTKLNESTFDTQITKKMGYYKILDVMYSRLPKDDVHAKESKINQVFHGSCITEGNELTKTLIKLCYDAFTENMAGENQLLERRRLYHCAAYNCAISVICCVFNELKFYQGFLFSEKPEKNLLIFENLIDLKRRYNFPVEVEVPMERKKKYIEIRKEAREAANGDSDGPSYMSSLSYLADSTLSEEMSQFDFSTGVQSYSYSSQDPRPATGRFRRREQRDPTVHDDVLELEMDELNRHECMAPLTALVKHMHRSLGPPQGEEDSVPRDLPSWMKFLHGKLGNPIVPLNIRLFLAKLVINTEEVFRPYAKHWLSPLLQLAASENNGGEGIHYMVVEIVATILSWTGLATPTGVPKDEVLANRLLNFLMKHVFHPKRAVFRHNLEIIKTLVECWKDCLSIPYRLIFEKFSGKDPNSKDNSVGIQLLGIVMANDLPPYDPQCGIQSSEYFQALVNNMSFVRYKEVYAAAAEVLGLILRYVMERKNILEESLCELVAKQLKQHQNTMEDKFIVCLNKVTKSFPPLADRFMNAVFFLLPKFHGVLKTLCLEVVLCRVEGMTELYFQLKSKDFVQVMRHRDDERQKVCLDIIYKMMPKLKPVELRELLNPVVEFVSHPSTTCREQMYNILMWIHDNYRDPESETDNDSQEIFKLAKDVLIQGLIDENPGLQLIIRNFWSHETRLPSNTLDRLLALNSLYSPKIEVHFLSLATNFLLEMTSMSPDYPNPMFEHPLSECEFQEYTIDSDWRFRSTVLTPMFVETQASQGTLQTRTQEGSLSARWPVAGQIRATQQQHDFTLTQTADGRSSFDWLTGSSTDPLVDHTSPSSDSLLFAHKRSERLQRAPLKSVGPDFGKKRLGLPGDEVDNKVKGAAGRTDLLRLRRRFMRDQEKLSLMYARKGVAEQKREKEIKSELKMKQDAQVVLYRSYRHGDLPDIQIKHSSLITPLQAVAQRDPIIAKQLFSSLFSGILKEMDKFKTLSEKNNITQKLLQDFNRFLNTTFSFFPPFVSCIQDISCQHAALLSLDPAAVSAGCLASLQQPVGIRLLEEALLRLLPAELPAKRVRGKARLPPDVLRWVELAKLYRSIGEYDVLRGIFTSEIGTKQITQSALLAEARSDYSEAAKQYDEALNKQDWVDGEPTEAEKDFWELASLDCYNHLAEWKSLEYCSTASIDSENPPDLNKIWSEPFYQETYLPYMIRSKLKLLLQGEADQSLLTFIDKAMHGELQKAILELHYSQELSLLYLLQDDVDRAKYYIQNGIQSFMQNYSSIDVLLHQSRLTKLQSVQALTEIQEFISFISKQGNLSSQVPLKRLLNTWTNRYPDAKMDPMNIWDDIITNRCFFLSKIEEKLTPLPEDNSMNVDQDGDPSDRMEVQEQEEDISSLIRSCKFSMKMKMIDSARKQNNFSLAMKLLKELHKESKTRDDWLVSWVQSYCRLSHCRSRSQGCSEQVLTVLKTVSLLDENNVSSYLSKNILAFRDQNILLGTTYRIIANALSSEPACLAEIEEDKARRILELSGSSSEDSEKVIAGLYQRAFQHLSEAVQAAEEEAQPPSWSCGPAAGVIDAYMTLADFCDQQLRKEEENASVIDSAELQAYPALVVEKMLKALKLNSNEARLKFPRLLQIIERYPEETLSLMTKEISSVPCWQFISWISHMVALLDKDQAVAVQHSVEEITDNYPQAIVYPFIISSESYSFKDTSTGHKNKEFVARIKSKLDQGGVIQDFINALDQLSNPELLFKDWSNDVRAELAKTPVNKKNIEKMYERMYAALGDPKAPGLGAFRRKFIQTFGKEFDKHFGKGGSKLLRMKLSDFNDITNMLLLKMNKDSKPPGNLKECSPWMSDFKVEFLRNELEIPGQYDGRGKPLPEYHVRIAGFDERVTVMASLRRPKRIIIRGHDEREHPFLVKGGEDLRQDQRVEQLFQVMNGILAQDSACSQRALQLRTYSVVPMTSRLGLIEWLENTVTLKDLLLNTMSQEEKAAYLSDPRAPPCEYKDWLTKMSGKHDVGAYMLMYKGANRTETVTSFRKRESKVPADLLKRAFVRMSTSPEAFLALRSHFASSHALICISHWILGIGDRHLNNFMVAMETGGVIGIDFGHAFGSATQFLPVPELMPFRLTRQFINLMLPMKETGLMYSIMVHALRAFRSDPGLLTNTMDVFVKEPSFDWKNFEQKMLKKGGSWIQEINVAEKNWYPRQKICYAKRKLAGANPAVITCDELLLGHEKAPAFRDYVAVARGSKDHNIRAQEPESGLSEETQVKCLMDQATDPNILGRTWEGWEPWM
T1 sequence (Q96SD1 whole entry partner): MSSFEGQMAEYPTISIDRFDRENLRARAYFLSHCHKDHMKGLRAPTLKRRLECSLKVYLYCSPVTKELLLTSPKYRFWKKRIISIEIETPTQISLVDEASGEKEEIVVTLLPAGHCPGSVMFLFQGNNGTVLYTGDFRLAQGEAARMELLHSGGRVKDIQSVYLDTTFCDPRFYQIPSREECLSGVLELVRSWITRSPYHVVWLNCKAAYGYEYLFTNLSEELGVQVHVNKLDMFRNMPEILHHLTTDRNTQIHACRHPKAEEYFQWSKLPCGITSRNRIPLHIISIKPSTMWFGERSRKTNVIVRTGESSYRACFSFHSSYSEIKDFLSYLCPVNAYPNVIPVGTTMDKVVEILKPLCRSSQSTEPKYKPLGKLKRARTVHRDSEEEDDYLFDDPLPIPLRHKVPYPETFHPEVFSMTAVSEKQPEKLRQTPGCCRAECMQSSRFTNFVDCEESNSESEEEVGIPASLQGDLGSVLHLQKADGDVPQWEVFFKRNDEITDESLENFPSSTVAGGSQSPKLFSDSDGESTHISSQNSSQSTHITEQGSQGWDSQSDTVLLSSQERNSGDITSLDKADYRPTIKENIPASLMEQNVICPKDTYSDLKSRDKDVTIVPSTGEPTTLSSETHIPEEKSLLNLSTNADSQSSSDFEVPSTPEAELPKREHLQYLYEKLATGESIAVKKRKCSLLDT

For `Nc1ncnc2c1ncn2[C@@H]1O[C@H](COP(=O)(O)OP(=O)(O)O)[C@@H](O)[C@H]1O` [ADP], the “endonucleolytic activity on hairpins and 5′ ends, relative to ATP” value (Artemis:DNA-PKcs complex; ADP instead of ATP, 20 bp artificial GC hairpin with 6-nucleotide 5′ overhang, FIG. 7 lane 3) was “lower level of endonucleolytic activity”.

With `Nc1ncnc2c1ncn2[C@@H]1O[C@H](COP(=O)(O)OP(=O)(O)NP(=O)(O)O)[C@@H](O)[C@H]1O` [AMP-PNP] the “effect of DNA-PKcs (conferring hairpin opening activity on Artemis) when analog is used instead of ATP” value (Artemis:DNA-PKcs complex) was “largely suppressed”.

With `Nc1ncnc2c1ncn2[C@@H]1O[C@H](COP(=O)(O)OP(=O)(O)OP(O)(O)=S)[C@@H](O)[C@H]1O` [ATP-γ-S] the “effect of DNA-PKcs (conferring hairpin opening activity on Artemis) when analog is used instead of ATP” value (Artemis:DNA-PKcs complex) was “largely suppressed”.

For “Artemis: full-length human Artemis with C-terminal myc-His tag, expressed in 293T cells, used on immunobeads as the enzyme”, the hairpin opening (20 bp hairpin (DFL16.1); Artemis alone, without DNA-PKcs, FIG. 5A lane 2) was “No hairpin opening” and the “hairpins opened during the time interval” value (20 bp hairpin (DFL16.1); with DNA-PKcs present, 37° C., 30 minutes, FIG. 5A lanes 4-6, said to be probably an underestimation) was “about 40%”.

For “D165N: D165N point mutant of Artemis, same expression vector as wild type”, the hairpin opening activity (20 bp hairpin (DFL16.1); in the presence of DNA-PKcs) was “lacks any hairpin opening activity”.

In the case of “DNA-PKcs: native catalytic subunit of DNA-dependent protein kinase, 469 kDa, purified from HeLa cells”, the Kd (dsDNA) is given as roughly 1 nM.
